In patent US20110230367A1, “Amphiphilic Peptides Promoting Production of Target miRNA and Method of Regulating Production of Target miRNA” (SNU R&DB FOUNDATION, priority 2009, published 2011):
Entries after “also recorded” stand apart in the source; their conditions may differ.

What was measured:
[1] = test system: recombinant human Dicer processing pre-miR16-1; test: Dicer activity assay in the presence of peptide, substrate pre-miR16-1; assay type: biochemical; settings: 400 nM peptide, pre-miR16-1 substrate, FIG. 2
Experimental: Two types of pre-miRNA (pre-let7a-1, pre-miR16-1) used as the substrate for the Dicer enzyme activity assay was ordered and manufactured by ST Pharm Co., Ltd (FIG. 1). For Dicer activity assay, the 5′ end of the synthesized pre-miRNA was labeled with ^32p isotope. Two pmole of each pre-miRNA was isotope labeled with […] of [g-^32P]ATP (New England Biolabs) using 10 units of T4 polynucleotide kinase (New England Biolabs). Total volume of 10 μl was isotope labeled for 1 hr at 37° C. The isotope labeled RNA obtained after the reaction was purified using G-25 Sephadex column (Sigma). The purified substrate was used for measuring Dicer enzyme activity. Total reaction mixture of 30 μl containing 1 nM of isotope labeled pre-miRNA and 0.001 u/μl of recombinant human Dicer (Genlantis, CA, USA) were incubated at 37° C. in 24 mM 4-(2-hydroxyethyl)-1-piperazineethanesulfonic acid, HEPES) buffer system containing 200 mM NaCl, 0.04 mM EDTA, 1 mM ATP and 2.5 mM MgCl2(pH 8.0). After reacting for 0, 10, 30, 60 or 120 min in the presence of 400 nM concentration of 2b or 2c peptide, 3 μl of each reaction mixture was mixed with 5 μl of RNA gel loading buffer {95% formamide, 10 mM ethylenediaminetetraacetic acid (EDTA), 0.05% FF (xylene cyanol FF)} and incubated for 5 min at 65° C. The amount of the reaction product was determined by gel running in 15% polyacrylamide gel containing 7M urea, and then the initial reaction velocity (V0) from each reaction was compared. The initial reaction velocity (V0) of the enzyme is the reaction velocity of the initial linear time (until 30 min). Each initial velocity was normalized with the initial velocity from each substrate condition without peptide treatment. The initial reaction velocity of Dicer for pre-let7a-1 and pre-miR16-1 without peptide treatment were […] and 0.018 fmole/min, respectively. Each of the initial reaction velocity is a mean data of more than 3 measurements, and the standard deviation is shown as error bars.

[2] = test system: mature miR16-1 in HCT116 cells; test: Production of mature miRNA in HCT116 cells by northern blotting; assay type: cell-based; settings: 2 μM peptide, 3 hrs, FIG. 4
Experimental: The HCT116 cell was purchased from American Type Culture Collection (ATCC) and was cultured in RPMI1640 medium at 37° C., under 5% CO2. Total RNA was extracted using Trizol reagent (Invitrogen) according to the manufactures recommended protocol.
The change in RNA amount was analyzed by culturing the cells with 2 μM concentration of peptide 2b or peptide 2c and with lipofectamine.
HCT116 cells were treated with 2 μM of peptide 2b, 2c, 1e or 0.2 μg/ml of doxorubicin for 3 hrs before analyzing the production of mature miRNA in total RNA using northern blotting. The 18S rRNA band intensity was used as the loading control. […] Peptide 1e was used as a negative control. Decade marker (Ambion) and 10˜20 μg of total RNA were separated by using 12.5% polyacrylamide gel containing 7M urea in 20 mM of 3-(N-morpholino)propanesulfonic acid (MOPS)-NaOH(pH 7.0) buffer at 350V for 2 hrs. RNA blotting was performed by chemical cross-linking method. Each of the separated RNA was transferred with the neutral nylon membrane (Hybond NX, Amersham/Pharmacia) and crosslinked to the membrane using 1-ethyl-3-(3-dimethylaminopropyl)carbodiimide (EDC). The membrane was prehybridized with the hybridization buffer (Clontech, CA, USA) containing 50 μl of 10 mg/ml of salmon sperm DNA. Next, the isotope labeled probe DNA which is complementary to the miRNA sequence was hybridized for 2 hrs in the same buffer condition.
The probe was isotope labeled with 25 μCi of [γ-^32P] ATP (New England Biolabs) and 5 units of polynucleotide kinase (New England Biolabs). The probe was ethanol precipitated and dissolved in 50 μl of DEPC treated water for use. The membrane was washed twice for 30 min with 200 ml of wash buffer containing 0.3 M NaCl, 0.03 M sodium citrate and 0.05% sodium dodecyl sulfate (SDS)(pH 7.0), then washed twice for 15 min with 200 ml of wash buffer containing 0.015 M NaCl, 0.0015 M sodium citrate and 0.1% SDS(pH 7.0). The membrane was exposed on the phosphorimager screen and each of the band intensity was detected by FLA-3000 and analyzed by using MultiGauge Ver. 3.0 software (Fuji Photo).

Row | Sequence | initial reaction velocity (V0) of Dicer, normalized to no peptide [1] | level of mature miR16-1 [2]
1 | WKKLLKLLKKWLKLAG [Peptide 2c, Ac-WKKLLKLLKKWLKLAG, 14] | increase in initial reaction velocity; also recorded: accelerated | 
2 | WKKLLKWLKKLLKLAG [Peptide 2b, Ac-WKKLLKWLKKLLKLAG, 13] | significantly increased; also recorded: accelerated | increased
